The record followed here is patent publication US10450378B2, “Cytotoxic and anti-mitotic compounds, and methods of using the same” (priority 2014, dated 2019).

Where two headings read alike, the source gives them in different places.

One may read the EC50 as the concentration that produces a half-maximal response.

In one data set the test system is Jurkat cell line. Briefly: Cytotoxicity of compounds of Formula I, Example 3 (CellTiter-Glo). Type of data set: cell-based, Human. The note with it: for EC50: Homo sapiens, 72 h. On the procedure:
(§1) Compounds were tested on Jurkat and HCC1954 cell lines to assess their cytotoxicity. Compounds were titrated 1:3 starting at various concentrations (30 nM to 1000 nM). Control cytotoxin HTI-286 (see, e.g., U.S. Pat. No. 7,579,323) was also titrated 1:3 across starting with a 30 nM concentration. Plates were incubated for 3 days. Cell viability was quantified using 30 μL/well of 1× CellTiter-Glo reagent.
(§2) Each cell line was grown in its respective growth medium until seeding day. Cells were removed from their culture vessels and the resulting cell suspension was counted using the ViCell. Cells were then diluted in their growth medium to 25000/mL such that 100 μL/well=2500 cells/well. Each cell line was seeded in the inner 60 wells of 96-well black walled TC plates, outer wells filled with water. HCC1954 were seeded a day prior to assay set up. Cytotoxins were diluted as described below a 5× dose-response of each compound was prepared using RPMI+10% FBS in a deep-well 96-well plate. This “master” dilution plate was used for each cell line. 25 μL of the 5× dose responses was spiked into each cell line in triplicate. The plates were returned to the incubator and were incubated for 3 nights. After the 3 nights, cell viability was quantified using 30 μL/well of 1× CellTiter-glo reagent. After at least 10 minutes of incubation, the luminescence was measured using the SpectraMax (500 ms integration).
(ATP-based viability assays read luminescence as a measure of living cells.)

Data set [1] deals with Human T-cell leukemia cell line Jurkat. Briefly: Cellular cytotoxicity of compounds of Formula I, Example 3.1. It is filed as cell-based. The settings on record: for EC50: Homo sapiens, Jurkat, read-out: EC50 (nM) Jurkat. As to the method: (§3) Compounds were tested on one or more of Human T-cell leukemia cell line Jurkat (ATCC: TIB-152); Human breast cancer cell lines HCC1954 (ATCC: CRL-2338) and JIMT-1 (DSMZ: ACC 589); Human Pancreatic cell line BxPC-3 (ATCC: CRL.1687), Human ovarian adenocarcinoma cell line SK-OV-3 (ATCC: HTB-77) and Human gastric carcinoma cell line NCI-N87 (ATCC: CRL. 5822); to assess their cytotoxicity.
(§4) Briefly, cells were obtained from commercial sources and cultured as described in the product sheet provided. Cells were removed from their culture vessels and the resulting cell suspension was counted using a ViCell (Beckman Coulter), then seeded at 25,000 cells/mL (2,500 cells/well) in Costar 3904 black walled, flat bottomed 96-well plates (cells were seeded in the inner 60 wells of 96-well TC plates, and outer edge wells filled with water). Adherent cell lines were incubated for one night at 37° C./5% CO2 atmosphere to allow the cells to attach to the microtiter plate surface, while suspension (Jurkat) cells were plated immediately before use. Cytotoxins were dissolved and serially diluted in dimethyl sulfoxide and then the solutions were added to complete growth medium at five-times the desired maximum final concentration. The cytotoxins were then titrated in growth medium, normally 1:3, over eight steps. A control with no test article present (growth medium alone) was included on each microtiter plate in sextuplicate. The prepared toxin titrations were added (25 μL/well) in triplicate to each cell line assayed. The cells and titrations were incubated at 37° C./5% CO2 for three nights (Jurkat) and five nights (all other cell lines). After the incubation, cell viability was measured using CellTiter-Glo® by adding 30 μL of prepared CellTiter-Glo® reagent to each assay well. The mixtures were incubated for at least twenty minutes in the dark prior to measuring emitted luminescence using a microplate luminometer (500 ms integration time). The collected relative luminescence units (RLU) were converted to % cytotoxicity using the growth medium alone control mentioned above (% Cytotoxicity=1-[well RLU/average medium alone control RLU]×100%).

The subject of data set [2] is Human breast cancer cell line JIMT-1. The description is as above. Type of data set: cell-based. The settings on record: five nights, CellTiter-Glo. As to the method:
as §3, §4

For data set [3], the system named is Human breast cancer cell line HCC1954. The description is as above. Type of data set: cell-based. The settings on record: five nights, CellTiter-Glo, read-out: EC50 (nM) HCC-1954. On the procedure:
as §3, §4

For data set [4], the system named is Human ovarian adenocarcinoma cell line SK-OV-3. The data set is described as above. It is filed as cell-based. The note with it: five nights, CellTiter-Glo, read-out: EC50 (nM) SKOV-3. On the procedure: as §3, §4
In data set [5] the test system is Human Pancreatic cell line BxPC-3. Described as above. It is filed as cell-based. The settings on record: five nights, CellTiter-Glo. On the procedure:
as §3, §4

Data set [6] concerns Human gastric carcinoma cell line NCI-N87. The data set is described as above. It is filed as cell-based. The note with it: five nights, CellTiter-Glo. On the procedure: as §3, §4
Another data set concerns HCC1954 cell line. Briefly: Cytotoxicity of compounds of Formula I, Example 3 (CellTiter-Glo). Type of data set: cell-based. The settings on record: Homo sapiens, 72 h, 3 days incubation. As to the method: as §1, §2
In a further data set the test system is Jurkat cells. Briefly: Cell cycle arrest assay. It is filed as cell-based, Human. The note with it: 50 nM, 24 h, propidium iodide. On the procedure:
Jurkat cells (ATCC), cultured in RMPI-1640 media supplemented with 10% FBS, were obtained in logarithmic growth. 1 million cells/ml were seeded into a 12-well tissue-culture treated plate in a 950 μL, volume. Cells were treated with Compound 5 in 50 μL of growth media such that the final concentration of Compound 5 was 50 nM, control cells were given 50 μL of growth media alone. Cells were incubated for 24 h at 37° C., 5% CO2 in a humidified incubator. Following incubation, cells were thoroughly resuspended and transferred to 5 mL FACS tubes, and stored on ice. Two washes were performed by spinning cells down in a swinging-bucket centrifuge at 450×g for 4 min, resuspending in 1 mL ice-cold PBS. Cells were fixed through the addition of 3 mL ice-cold 100% ethanol in a dropwise fashion under vortex, and immediately stored at 4° C. for 1 h. During the 1 h incubation, the following staining solution was prepared in ice-cold PBS: 10 μg/ml propidium iodide, 10 U/ml RNAse 1f, and 0.05% Triton X-100. Following the 1 h fixation incubation, ethanol was removed by spinning cells as described above, and washing twice in 1 mL ice-cold PBS. Cells were resuspended in 500 μL of the above-mentioned staining solution, and incubated at room temperature for 1 h. […] Histograms were generated using FCS Express, plotting # of events against fluorescence in FL-3.

Where [7] appears, read: 3 days incubation, CellTiter-Glo, read-out: EC50.

Turning to `CC[C@H](C)[C@@H]([C@@H](CC(=O)N1CCC[C@H]1[C@H](OC)[C@@H](C)C(=O)NS(=O)(=O)c1ccc(NC(=O)C(F)(F)F)cc1)OC)N(C)C(=O)[C@@H](NC(=O)[C@H](C(C)C)N(C)C)C(C)C` [Compound 4, (S)-2-((S)-2-(Dimethylamino)-3-methylbutanamido)-N-((3R,4S,5S)-3-methoxy-1-((S)-2-((1R,2R)-1-methoxy-2-methyl-3-oxo-3-(4-(2,2,2-trifluoroacetamido)phenylsulfonamido)propyl)pyrrolidin-1-yl)-5-methyl-1-oxoheptan-4-yl)-N,3-dimethylbutanamide], the EC50 in the data set on Jurkat cell line (setting [7]) came out at 18.1 nM; in data set [1] (three nights, CellTiter-Glo), 18.1 nM.

Take `CC[C@H](C)[C@@H]([C@@H](CC(=O)N1CCC[C@H]1[C@H](OC)[C@@H](C)C(=O)NS(=O)(=O)c1ccc(N)cc1)OC)N(C)C(=O)[C@@H](NC(=O)[C@H](C(C)C)N(C)C)C(C)C` [Compound 5, (S)-N-((3R,4S,5S)-1-((S)-2-((1R,2R)-3-(4-Aminophenylsulfonamido)-1-methoxy-2-methyl-3-oxopropyl)pyrrolidin-1-yl)-3-methoxy-5-methyl-1-oxoheptan-4-yl)-2-((S)-2-(dimethylamino)-3-methylbutanamido)-N,3-dimethylbutanamide]: the EC50 was 16.8 nM in the data set on Jurkat cell line (setting [7]); 9.3 nM in data set [2]; 8.9 nM in data set [3]; 13.6 nM in data set [1] (three nights, CellTiter-Glo); 23.7 nM in data set [4]; 18.2 nM in data set [5]. In addition, the concentration giving a half-maximal response (EC50) in data set [6] amounted to 12 nM; in the data set on HCC1954 cell line, 8.9 nM. In addition, the “Cell cycle phase (DNA content histograms)” value in the data set on Jurkat cells is on record as “pronounced shift towards G2/M phase”.

For the compound `CC[C@H](C)[C@@H]([C@@H](CC(=O)N1CCC[C@H]1[C@H](OC)[C@@H](C)C(=O)NS(=O)(=O)Cc1ccc(NC(=O)C(F)(F)F)cc1)OC)N(C)C(=O)[C@@H](NC(=O)[C@H](C(C)C)N(C)C)C(C)C` [Compound 7, (S)-2-((S)-2-(Dimethylamino)-3-methylbutanamido)-N-((3R,4S,5S)-3-methoxy-1-((S)-2-((1R,2R)-1-methoxy-2-methyl-3-oxo-3-((4-(2,2,2-trifluoroacetamido)phenyl)methylsulfonamido)propyl)pyrrolidin-1-yl)-5-methyl-1-oxoheptan-4-yl)-N,3-dimethylbutanamide], the half-maximal effective concentration (EC50) in the data set with Jurkat cell line (setting [7]) was 29.9 nM; in [1] (three nights, CellTiter-Glo), 29.9 nM.

Take `CC[C@H](C)[C@@H]([C@@H](CC(=O)N1CCC[C@H]1[C@H](OC)[C@@H](C)C(=O)N[C@@H](Cc1ccccc1)C(=O)NS(=O)(=O)c1ccc(NC(=O)C(F)(F)F)cc1)OC)N(C)C(=O)[C@@H](NC(=O)[C@H](C(C)C)N(C)C)C(C)C` [Compound 10, (S)-2-((S)-2-(Dimethylamino)-3-methylbutanamido)-N-((3R,4S,5S)-3-methoxy-1-((S)-2-((1R,2R)-1-methoxy-2-methyl-3-oxo-3-((S)-1-oxo-3-phenyl-1-(4-(2,2,2-trifluoroacetamido)phenylsulfonamido)propan-2-ylamino)propyl)pyrrolidin-1-yl)-5-methyl-1-oxoheptan-4-yl)-N,3-dimethylbutanamide]: the concentration for a half-maximal effect (EC50) (in the data set on Jurkat cell line; in [1]) was 45.3 nM in each case.

As for `CC[C@H](C)[C@@H]([C@@H](CC(=O)N1CCC[C@H]1[C@H](OC)[C@@H](C)C(=O)N[C@@H](Cc1ccccc1)C(=O)NS(=O)(=O)c1ccc(N)cc1)OC)N(C)C(=O)[C@@H](NC(=O)[C@H](C(C)C)N(C)C)C(C)C` [Compound 11, (S)-N-((3R,4S,5S)-1-((S)-2-((1R,2R)-3-((S)-1-(4-Aminophenylsulfonamido)-1-oxo-3-phenylpropan-2-ylamino)-1-methoxy-2-methyl-3-oxopropyl)pyrrolidin-1-yl)-3-methoxy-5-methyl-1-oxoheptan-4-yl)-2-((S)-2-(dimethylamino)-3-methylbutanamido)-N,3-dimethylbutanamide], the EC50 with Jurkat cell line (setting [7]) is 52 nM; in data set [1] (three nights, CellTiter-Glo), 52 nM.

For `CC[C@H](C)[C@@H]([C@@H](CC(=O)N1CCC[C@H]1[C@H](OC)[C@@H](C)C(=O)N[C@@H](Cc1ccccc1)C(=O)NS(=O)(=O)Cc1ccc(NC(=O)C(F)(F)F)cc1)OC)N(C)C(=O)[C@@H](NC(=O)[C@H](C(C)C)N(C)C)C(C)C` [Compound 13, (S)-2-((S)-2-(Dimethylamino)-3-methylbutanamido)-N-((3R,4S,5S)-3-methoxy-1-((S)-2-((1R,2R)-1-methoxy-2-methyl-3-oxo-3-((S)-1-oxo-3-phenyl-1-(4-(2,2,2-trifluoroacetamido)phenylmethylsulfonamido)propan-2-ylamino)propyl)pyrrolidin-1-yl)-5-methyl-1-oxoheptan-4-yl)-N,3-dimethylbutanamide], the EC50 (in the data set with Jurkat cell line; in data set [1]) was 20.9 nM throughout.

With `CC[C@H](C)[C@@H]([C@@H](CC(=O)N1CCC[C@H]1[C@H](OC)[C@@H](C)C(=O)NS(=O)(=O)c1ccc(C(=O)OC)cc1)OC)N(C)C(=O)[C@@H](NC(=O)[C@H](C(C)C)N(C)C)C(C)C` [Compound 34, Methyl 4-(N-((2R,3R)-3-((S)-1-((3R,4S,5S)-4-((S)-2-((S)-2-(Dimethylamino)-3-methylbutanamido)-N,3-dimethylbutanamido)-3-methoxy-5-methylheptanoyl)pyrrolidin-2-yl)-3-methoxy-2-methylpropanoyl)sulfamoyl)benzoate], the EC50 in data set [1] (three nights, CellTiter-Glo) is over 100 nM; in data set [5] it was over 300 nM; in data set [6] it was over 300 nM.

Consider `CN[C@H](C(=O)N[C@H](C(=O)N(C)[C@H](/C=C(\C)C(=O)O)C(C)C)C(C)(C)C)C(C)(C)c1ccccc1` [HTI-286, reference compound], for which the “Killing by control cytotoxin” value is given as “successfully killed Jurkats at an expected concentration” with Jurkat cell line (titrated 1:3 starting with 30 nM) and “successfully killed all cell lines at an expected concentration” in data set [1] (stated for all cell lines of Example 3.1).
